This is an account of results in patent publication US4824853A, “α,α-diaryl-4-aryl-4-hydroxy-1-piperidinebutanamide, N-oxides and method of treating diarrhea” (Janssen Pharmaceutica N.V., priority 1986, dated 1989).

One data set deals with tail withdrawal response. As to the kind of experiment: Tail Withdrawal Test in Rats. As to conditions: intravenous; for ED50: Rattus norvegicus, 55° C. water, response suppressed >10 seconds in 50% of animals, indicator of central effects. The data set is classed as in vivo, Female Wistar rats. On the procedure:
Female Wistar rats were fasted overnight. Each animal was treated intravenously with the desired dose of the compound to be tested. The thus treated rats were put into individual restraining cages. After the administration of the test compound, the lower 5 cm portion of the tail was immersed into a cup filled with water at a constant temperature of 55° C. The typical tail withdrawal response was evaluated during a 10 seconds period after the immersion. ED50 values in mg/kg body weight were determined at that dose of the test compound capable of suppressing in 50% of the tested animals the typical tail withdrawal response during a time period exceeding 10 seconds.

The test system of data set [1] is diarrhea. As to the kind of experiment: Determination of the antidiarrheal specificity (Tail Withdrawal ED50 / Castor Oil ED50). The class given is in vivo, Female Wistar rats. As to conditions: ratio ED50 Tail Withdrawal Test / ED50 Castor Oil Test. On the procedure: (§1) The safety margin for the antidiarrheal action was determined as the ratio of the LD50 value to the ED50 value obtained in the Castor Oil Test. The antidiarrheal specificity was determined as the ratio of the ED50 value obtained in the Tail Withdrawal Test to the ED50 value obtained in the Castor Oil Test.

Data set [2] relates to diarrhea. As to the kind of experiment: Castor Oil Test in Rats. The class given is in vivo, Female Wistar rats. As to conditions: Rattus norvegicus; intravenous, 1 h before 1 ml castor oil orally; diarrhea absent in 50% of animals 2 hours after castor oil. The protocol:
Female Wistar rats were fasted overnight. Each animal was treated intravenously with the desired dose of the compound to be tested. One hour thereafter, the animal received 1 ml of castor oil orally. Each animal was kept in an individual cage and 2 hours after the castor oil treatment, the presence or absence of diarrhea was noted. The ED50 value was determined as that dose in mg/kg body weight, at which no diarrhea was present in 50% of the tested animals. Said ED50 -value for a compound of the present invention and for 4-(4-chlorophenyl)-4-hydroxy-N,N-dimethyl-α,α-diphenyl-1-piperidinebutanamide, which compound is generically designated as loperamide and which is described in U.S. Pat. No. 3,714,159, can be found in table I.

Data set [3] is described as follows: Determination of toxicity. Set-up: species or system Female Wistar rats. As to conditions: rat, in vivo; dose lethal in 50% of tested animals; route not stated. On the procedure:
Female Wistar rats were treated with the compound to be tested at various dose levels. LD50 values were determined as that dose in mg/kg body weight being lethal in 50% of the tested animals. Said LD50 values obtained for a compound of the present invention and for 4-(4-chlorophenyl)-4-hydroxy-N,N-dimethyl-α,α-diphenyl-1-piperidinebutanamide (i.e. loperamide) are also listed in table I. From these value it can be concluded that the compounds of the present invention show a decreased toxicity.

Data set [4] in a line: Determination of the safety margin for the antidiarrheal action (LD50 / Castor Oil ED50). Also noted: species or system Female Wistar rats. Conditions: rat, in vivo; ratio LD50 / ED50 Castor Oil Test. The protocol: as §1

Bounds are passed on as bounds.

One may read the ED50 as the dose that gives a 50% effect, or the effect in half of the subjects. One may read the LD50 as the dose expected to kill half of the subjects tested. Low readings indicate greater toxicity, high ones lower toxicity.

Consider `CN(C)C(=O)C(CC[N+]1([O-])CCC(O)(c2ccc(Cl)cc2)CC1)(c1ccccc1)c1ccccc1` (stereo not drawn) [Compound 1, trans-4-(4-chlorophenyl)-4-hydroxy-N,N-dimethyl-α,α-diphenyl-1-piperidinebutanamide, N-oxide], for which the ED50 is more than 20 mg/kg in the data set on tail withdrawal response and 0.21 mg/kg with diarrhea [2]. Also, the “typical tail withdrawal reflex antagonism (in words)” value with tail withdrawal response was “does not show such activity”. The Antidiarrheal specificity with diarrhea [1] is listed as more than 95. The same compound came in with a median lethal dose (LD50) in data set [3] of 28.3 mg/kg. In addition, the selectivity ratio in data set [4] was found to be 135.

Regarding `CN(C)C(=O)C(CCN1CCC(O)(c2ccc(Cl)cc2)CC1)(c1ccccc1)c1ccccc1` [loperamide, 4-(4-chlorophenyl)-4-hydroxy-N,N-dimethyl-α,α-diphenyl-1-piperidinebutanamide], in the data set on tail withdrawal response, it took a dose of 2.83 mg/kg to reach the 50% effect level (ED50) and the “typical tail withdrawal reflex antagonism (in words)” value is “antagonizes the typical tail withdrawal reflex”. In addition, the Antidiarrheal specificity in the data set on diarrhea [1] is 29.8. In the data set with diarrhea [2], this compound displayed an ED50 of 0.095 mg/kg. Also, the LD50 in data set [3] was found to be 5.92 mg/kg. Further, in data set [4], the selectivity ratio was determined as 62.3.
